Results as given in PubChem BioAssay (NCI).
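Compound exposure: 48 hours, 5 concentrations, 96-well plates. Abbreviation: GI50, concentration required for 50% inhibition of growth. At the TGI there is no net growth.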

Tests used:
Assay in all cases: growth of human tumour cells (NCI), 48 h
UO-31 renal = tested on: UO-31 renal
786-0 renal = tested on: 786-0 renal
NCI-H226 lung = tested on: NCI-H226 lung
ACHN renal = tested on: ACHN renal
OVCAR-5 ovarian = tested on: OVCAR-5 ovarian
A549 NSCLC = tested on: A549 NSCLC
TK-10 renal = tested on: TK-10 renal
A498 renal = tested on: A498 renal
NCI-H522 lung = tested on: NCI-H522 lung
HL-60(TB) leukemia = tested on: HL-60(TB) leukemia
HT29 colon = tested on: HT29 colon
SNB-75 CNS = tested on: SNB-75 CNS
PC-3 prostate = tested on: PC-3 prostate
T-47D breast = tested on: T-47D breast
IGROV1 ovarian = tested on: IGROV1 ovarian
HCT-116 colon = tested on: HCT-116 colon
BT-549 breast = tested on: BT-549 breast
NCI-H460 lung = tested on: NCI-H460 lung
K-562 leukemia = tested on: K-562 leukemia
OVCAR-3 ovarian = tested on: OVCAR-3 ovarian
NCI-H23 lung = tested on: NCI-H23 lung
SF-268 CNS = tested on: SF-268 CNS
OVCAR-8 ovarian = tested on: OVCAR-8 ovarian
LOX IMVI melanoma = tested on: LOX IMVI melanoma
SK-MEL-5 melanoma = tested on: SK-MEL-5 melanoma
HCC-2998 colon = tested on: HCC-2998 colon
SF-295 CNS = tested on: SF-295 CNS
SK-OV-3 ovarian = tested on: SK-OV-3 ovarian
COLO 205 colon = tested on: COLO 205 colon
U251 CNS = tested on: U251 CNS
SF-539 CNS = tested on: SF-539 CNS
HOP-92 NSCLC = tested on: HOP-92 NSCLC
MOLT-4 leukemia = tested on: MOLT-4 leukemia
SN12C renal = tested on: SN12C renal
MALME-3M melanoma = tested on: MALME-3M melanoma
RXF 393 renal = tested on: RXF 393 renal
CAKI-1 renal = tested on: CAKI-1 renal
UACC-257 melanoma = tested on: UACC-257 melanoma
SK-MEL-2 melanoma = tested on: SK-MEL-2 melanoma
SW-620 colon = tested on: SW-620 colon
MDA-MB-231 breast = tested on: MDA-MB-231 breast
HS 578T breast = tested on: HS 578T breast
SK-MEL-28 melanoma = tested on: SK-MEL-28 melanoma
HCT-15 colon = tested on: HCT-15 colon
SR leukemia = tested on: SR leukemia
UACC-62 melanoma = tested on: UACC-62 melanoma
DU-145 prostate = tested on: DU-145 prostate
OVCAR-4 ovarian = tested on: OVCAR-4 ovarian
RPMI-8226 leukemia = tested on: RPMI-8226 leukemia
HOP-62 NSCLC = tested on: HOP-62 NSCLC
CCRF-CEM leukemia = tested on: CCRF-CEM leukemia
SNB-19 CNS = tested on: SNB-19 CNS
MDA-MB-435 = tested on: MDA-MB-435
NCI/ADR-RES ovarian = tested on: NCI/ADR-RES ovarian
KM12 colon = tested on: KM12 colon
MCF7 breast = tested on: MCF7 breast

## OC(CNCC1CCCO1)Cn1c2ccc(Cl)cc2c2cc(Cl)ccc21 (configuration not stated)
UO-31 renal
  GI50: 1610 nM
  TGI: 3150 nM
786-0 renal
  GI50: 1590 nM
  TGI: 3080 nM
NCI-H226 lung
  GI50: 2420 nM
  TGI: 8100 nM
ACHN renal
  GI50: 1680 nM
  TGI: 3160 nM
OVCAR-5 ovarian
  GI50: 1890 nM
  TGI: 3610 nM
A549 NSCLC
  GI50: 1870 nM
  TGI: 3690 nM
TK-10 renal
  GI50: 2050 nM
  TGI: 3750 nM
A498 renal
  GI50: 1060 nM
  TGI: 8830 nM
NCI-H522 lung
  GI50: 1890 nM
  TGI: 3600 nM
HL-60(TB) leukemia
  GI50: 2300 nM
  TGI: 5510 nM
HT29 colon
  GI50: 1940 nM
  TGI: 3720 nM
SNB-75 CNS
  GI50: 1390 nM
  TGI: 2870 nM
PC-3 prostate
  GI50: 1930 nM
  TGI: 3740 nM
T-47D breast
  GI50: 1910 nM
  TGI: 3890 nM
IGROV1 ovarian
  GI50: 2050 nM
  TGI: 4030 nM
HCT-116 colon
  GI50: 1730 nM
  TGI: 3120 nM
BT-549 breast
  GI50: 5980 nM
  TGI: 27100 nM
NCI-H460 lung
  GI50: 1950 nM
  TGI: 3750 nM
K-562 leukemia
  GI50: 2150 nM
  TGI: 4760 nM
OVCAR-3 ovarian
  GI50: 1820 nM
  TGI: 3280 nM
NCI-H23 lung
  GI50: 1920 nM
  TGI: 3610 nM
SF-268 CNS
  GI50: 1870 nM
  TGI: 3770 nM
OVCAR-8 ovarian
  GI50: 2020 nM
  TGI: 4220 nM
LOX IMVI melanoma
  GI50: 1650 nM
  TGI: 3000 nM
SK-MEL-5 melanoma
  GI50: 1770 nM
  TGI: 3260 nM
HCC-2998 colon
  GI50: 1710 nM
  TGI: 3150 nM
SF-295 CNS
  GI50: 1780 nM
  TGI: 3570 nM
SK-OV-3 ovarian
  GI50: 2080 nM
  TGI: 4190 nM
COLO 205 colon
  GI50: 1920 nM
  TGI: 3610 nM
U251 CNS
  GI50: 1650 nM
  TGI: 3050 nM
SF-539 CNS
  GI50: 1660 nM
  TGI: 3130 nM
HOP-92 NSCLC
  GI50: 2150 nM
  TGI: 6240 nM
MOLT-4 leukemia
  GI50: 2090 nM
  TGI: 4650 nM
SN12C renal
  GI50: 2060 nM
  TGI: 4580 nM
MALME-3M melanoma
  GI50: 1930 nM
  TGI: 3940 nM
RXF 393 renal
  GI50: 1620 nM
  TGI: 3510 nM
CAKI-1 renal
  GI50: 1540 nM
  TGI: 3000 nM
UACC-257 melanoma
  GI50: 1640 nM
  TGI: 3130 nM
SK-MEL-2 melanoma
  GI50: 2290 nM
  TGI: 4280 nM
SW-620 colon
  GI50: 1700 nM
  TGI: 3380 nM
MDA-MB-231 breast
  GI50: 1750 nM
  TGI: 3500 nM
HS 578T breast
  GI50: 2140 nM
  TGI: 6930 nM
SK-MEL-28 melanoma
  GI50: 1670 nM
  TGI: 3150 nM
HCT-15 colon
  GI50: 1670 nM
  TGI: 3260 nM
SR leukemia
  GI50: 2050 nM
  TGI: 5500 nM
UACC-62 melanoma
  GI50: 1780 nM
  TGI: 3460 nM
DU-145 prostate
  GI50: 1830 nM
  TGI: 3370 nM
OVCAR-4 ovarian
  GI50: 1750 nM
  TGI: 4320 nM
RPMI-8226 leukemia
  GI50: 2690 nM
  TGI: 6200 nM
HOP-62 NSCLC
  GI50: 1720 nM
  TGI: 3390 nM
CCRF-CEM leukemia
  GI50: 2280 nM
  TGI: 4990 nM
SNB-19 CNS
  GI50: 1880 nM
  TGI: 3960 nM
MDA-MB-435
  GI50: 1660 nM
  TGI: 3020 nM
NCI/ADR-RES ovarian
  GI50: 1930 nM
  TGI: 3820 nM
KM12 colon
  GI50: 1810 nM
  TGI: 3270 nM
MCF7 breast
  GI50: 1720 nM
  TGI: 3250 nM
